Source: paper PMC3711794 (Molecular cancer therapeutics, 2012)
Non-standard residues stand in square brackets, D forms with d. Residues, ends and D or L forms follow the SMILES beside them. pT = C[C@@H](OP(=O)(O)O)[C@H](N)C(=O)O

What was measured:
[1] = target: PBD; details: read-out: Kd for the PBD; ref [19]; cited from earlier work
[2] = target: T1, PLK3 PBD (335–646) (Homo sapiens, UniProt Q9H4B4); experiment: Fluorescence polarization competitive binding assay, PLK3 PBD
T1 sequence (Q9H4B4 335-646): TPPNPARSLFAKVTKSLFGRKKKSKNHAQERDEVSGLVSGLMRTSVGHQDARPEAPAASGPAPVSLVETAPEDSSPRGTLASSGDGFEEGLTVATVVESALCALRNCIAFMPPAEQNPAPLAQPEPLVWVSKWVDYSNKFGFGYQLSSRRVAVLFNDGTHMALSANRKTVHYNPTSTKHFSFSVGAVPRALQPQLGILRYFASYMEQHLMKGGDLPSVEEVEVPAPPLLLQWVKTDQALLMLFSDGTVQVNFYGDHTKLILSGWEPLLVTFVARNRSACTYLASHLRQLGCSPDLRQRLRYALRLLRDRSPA

[3] = tested on: PLK1; details: ref [38]; cited from earlier work
[4] = tested on: HeLa-H2B-GFP cells; experiment: Aberrant prometaphase/metaphase analysis after QQ transfection; assay type: cell-based; details: for aberrant prometaphase/metaphase cells: controls <10%
[5] = tested on: HeLa-H2B-GFP cells; experiment: Immunofluorescence of PLK1 centrosomal localization after QQ transfection; details: for fluorescence intensity of PLK1 staining at centrosomes: PBS control 51.2, QQ control 49.2
[6] = tested on: HeLa cells; experiment: Annexin V – Propidium Iodide flow cytometry cell death assay; assay type: cell-based

Molecule: LHSpTAI
- Kd [1]: 0.25 µM

Molecule: CC(C)C[C@H](NC(=O)[C@@H]1CCCN1C(=O)CN)C(=O)N[C@@H](C)C(=O)N[C@H](C(=O)N[C@@H](CO)C(=O)N[C@H](C(=O)N1CCC[C@H]1C(=O)N[C@@H](CCCCN)C(=O)N[C@@H](CC(N)=O)C(=O)NCC(=O)O)[C@@H](C)OP(=O)(O)O)[C@@H](C)O [PLK3 ligand, GPLATS[pT]PKNG, reference compound] (H-GPLATS[pT]PKNG-OH)
- IC50 [2]: 6.5 µM

Molecule: O=c1c(O)cccc2cc(O)c(O)c(O)c12 [PPG, purpurogalin, reference compound]
- inhibition of PLK1 catalytic activity in vitro [3]: neither PPG nor Poloxin inhibit PLK1 catalytic activity
- induction of aberrant mitoses in words ([4]; data not shown): very few aberrant mitoses

Molecule: CC(=O)N1CCC[C@H]1C(=O)N[C@@H](CC(C)C)C(=O)N[C@@H](Cc1c[nH]cn1)C(=O)N[C@@H](CO)C(=O)N[C@H](C(=O)N[C@@H](C)C(=O)O)[C@@H](C)OP(=O)(O)O [compound 5743, Ac-PLHS[pT]A] (Ac-PLHS[pT]A-OH)
- statistical significance of decrease in PLK1 centrosomal fluorescent intensity [5]: Statistically significant decreases
- fluorescence intensity of PLK1 staining at centrosomes ([5]; 30 μM): 33 arbitrary fluorescence units
- decrease in percentage of viable cells ([6]; 30 µM, 24 hours post-treatment): 30%
- Apoptosis @ 24hr, 30 µM ([6]; HeLa cells, QQ transfected, 24 hr): 34.0%
- aberrant prometaphase/metaphase cells ([4]; 10 µM dose): 32%
- aberrant prometaphase/metaphase cells ([4]; 30 µM dose): 40.3%
- Aberrant mitoses, @ 24hr, 30 µM ([4]; HeLa-H2B-GFP cells, QQ transfected, 24 hr, 30 µM): 40.3%
- inhibition at 600 µM ([2]; read-out: inhibition of PLK3 PBD binding): 31%

Molecule: CC(C)C[C@H](NC(=O)CNC(=O)[C@H](CC(N)=O)NC(=O)[C@@H]1CCCN1C(=O)[C@@H](NC(=O)[C@H](CO)NC(=O)[C@H](CS)NC(=O)[C@H](CC(C)C)NC(=O)[C@@H](N)CC(C)C)[C@@H](C)OP(=O)(O)O)C(=O)O [compound 292, LLCS[pT]PNGL] (H-LLCS[pT]PNGL-OH)
- fluorescence intensity of PLK1 staining at centrosomes ([5]; concentration not given): 45 arbitrary fluorescence units
- induction of apoptosis in words ([6]; 30 µM, relative to the controls): did not induce significant levels of apoptosis
- aberrant prometaphase/metaphase cells ([4]; 30 µM dose): 25%
